Assay: xn = mol fraction of the nth substance listed
Conditions: for viscosity / speed of sound / mass density: 101 kPa, Liquid; for viscosity: Concentric cylinders viscometry; for speed of sound: Pulse-echo method; for mass density: Vibrating tube method; for surface tension liquid-gas: 294 K, Pendant drop shape

CC(CC(C)(C)C)CC(C)(C)C [2,2,4,6,6-pentamethylheptane] + CCCCCCCCCCCCCCCC
Conditions	mass density [kg/m3]	speed of sound [m/s]	viscosity [mPa·s]
293.15 K, x1 = 0.1261	770.6	1342.7	3.1
293.15 K, x1 = 0.2449	767.8	1327.4	2.79
293.15 K, x1 = 0.4087	763.6	1304.9	2.41
293.15 K, x1 = 0.562	759.5	1282.2	2.09
293.15 K, x1 = 0.7036	755.3	1259.1	1.8
293.15 K, x1 = 0.8368	751	1235.8	1.56
293.15 K, x1 = 1	745.5	1204	1.29
303.15 K, x1 = 0.1261	763.8	1305.2	2.47
303.15 K, x1 = 0.2449	760.9	1290	2.25
303.15 K, x1 = 0.4087	756.8	1267.4	1.97
303.15 K, x1 = 0.562	752.6	1244.5	1.72
303.15 K, x1 = 0.7036	748.3	1221.1	1.5
303.15 K, x1 = 0.8368	743.9	1197.4	1.31
303.15 K, x1 = 1	738.2	1164.9	1.1
313.15 K, x1 = 0.1261	756.8	1268.4	2.03
313.15 K, x1 = 0.2449	754	1253.3	1.86
313.15 K, x1 = 0.4087	749.8	1230.7	1.64
313.15 K, x1 = 0.562	745.6	1207.5	1.44
313.15 K, x1 = 0.7036	741.3	1183.8	1.27
313.15 K, x1 = 0.8368	736.8	1159.8	1.11
313.15 K, x1 = 1	730.9	1126.7	0.941
323.15 K, x1 = 0.1261	–	1232.5	1.68
323.15 K, x1 = 0.2449	–	1217.2	1.55
323.15 K, x1 = 0.4087	–	1194.6	1.38
323.15 K, x1 = 0.562	–	–	1.23
323.15 K, x1 = 0.7036	–	–	1.09
323.15 K, x1 = 0.8368	–	–	0.966
323.15 K, x1 = 1	–	–	0.827

Conditions	surface tension liquid-gas [mN/m]
x1 = 0.1261	25.9
x1 = 0.2449	25.3
x1 = 0.4087	24.3
x1 = 0.562	23.8
x1 = 0.7036	23.1
x1 = 0.8368	22.5
x1 = 1	21.8

— the NIST ThermoML archive (doi:10.1021/je400839x)
